Columns and labels:
Test in all cases: relative viability (nuclei count vs DMSO), 5 days (fraction); higher = more cells survive
[1] = tested on: NCI-H1666
Procedure, shortened: (§1)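 Lung cancer cell lines in 1536-well plates got either a single drug or a fixed anchor-drug dose together with five library-drug doses (not always all listed) in √10 steps, by pin tool, on the day after seeding. Nuclei were counted after 5 days, and relative viability is the treated-to-vehicle ratio of nuclei counts. Values are medians of duplicate plates.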

[2] = tested on: NCI-H1915
Procedure, shortened: as §1

[3] = tested on: NCI-H1755
Procedure, shortened: as §1

[4] = tested on: A-427
Procedure, shortened: as §1

[5] = tested on: NCI-H2170
Procedure, shortened: as §1

[6] = tested on: NCI-H2023
Procedure, shortened: as §1

[7] = tested on: BEN
Procedure, shortened: as §1

[8] = tested on: NCI-H460
Procedure, shortened: as §1

[9] = tested on: NCI-H1395
Procedure, shortened: as §1

[10] = tested on: LCLC-97TM1
Procedure, shortened: as §1

[11] = tested on: NCI-H1944
Procedure, shortened: as §1

[12] = tested on: SK-LU-1
Procedure, shortened: as §1

[13] = tested on: NCI-H1793
Procedure, shortened: as §1

[14] = tested on: NCI-H650
Procedure, shortened: as §1

[15] = tested on: LU99A
Procedure, shortened: as §1

[16] = tested on: LXF-289
Procedure, shortened: as §1

[17] = tested on: NCI-H2126
Procedure, shortened: as §1

[18] = tested on: PC-3 [JPC-3]
Procedure, shortened: as §1

[19] = tested on: HARA
Procedure, shortened: as §1

[20] = tested on: NCI-H23
Procedure, shortened: as §1

[21] = tested on: LOU-NH91
Procedure, shortened: as §1

[22] = tested on: NCI-H441
Procedure, shortened: as §1

[23] = tested on: NCI-H322M
Procedure, shortened: as §1

O=C(O)CCCCC(CCSCc1ccccc1)SCc1ccccc1 (centres undefined) [CPI-613] + Nc1ncn([C@H]2C[C@H](O)[C@@H](CO)O2)c(=O)n1 [Decitabine] (partner 2 µM)
relative viability ([1]; first compound 5 µM): 0.676
relative viability ([1]; first compound 15.81 µM): 0.601
relative viability ([1]; first compound 50 µM): 0.798
relative viability ([1]; first compound 158.11 µM): 0.639
relative viability ([1]; first compound 500 µM): 0.509
relative viability ([2]; first compound 5 µM): 0.272
relative viability ([2]; first compound 15.81 µM): 0.266
relative viability ([2]; first compound 50 µM): 0.256
relative viability ([2]; first compound 158.11 µM): 0.235
relative viability ([2]; first compound 500 µM): 0.114
relative viability ([3]; first compound 5 µM): 0.732
relative viability ([3]; first compound 15.81 µM): 0.738
relative viability ([3]; first compound 50 µM): 0.67
relative viability ([3]; first compound 158.11 µM): 0.699
relative viability ([3]; first compound 500 µM): 0.543
relative viability ([4]; first compound 5 µM): 0.55
relative viability ([4]; first compound 15.81 µM): 0.551
relative viability ([4]; first compound 50 µM): 0.582
relative viability ([4]; first compound 158.11 µM): 0.495
relative viability ([4]; first compound 500 µM): 0.435
relative viability ([5]; first compound 5 µM): 0.458
relative viability ([5]; first compound 15.81 µM): 0.484
relative viability ([5]; first compound 50 µM): 0.486
relative viability ([5]; first compound 158.11 µM): 0.342
relative viability ([5]; first compound 500 µM): 0.199
relative viability ([6]; first compound 5 µM): 0.215
relative viability ([6]; first compound 15.81 µM): 0.257
relative viability ([6]; first compound 50 µM): 0.244
relative viability ([6]; first compound 158.11 µM): 0.0918
relative viability ([6]; first compound 500 µM): 0.0147
relative viability ([7]; first compound 5 µM): 0.773
relative viability ([7]; first compound 15.81 µM): 0.649
relative viability ([7]; first compound 50 µM): 0.802
relative viability ([7]; first compound 158.11 µM): 0.625
relative viability ([7]; first compound 500 µM): 0.608
relative viability ([8]; first compound 5 µM): 0.513
relative viability ([8]; first compound 15.81 µM): 0.396
relative viability ([8]; first compound 50 µM): 0.456
relative viability ([8]; first compound 158.11 µM): 0.115
relative viability ([8]; first compound 500 µM): 0.0075
relative viability ([9]; first compound 5 µM): 0.667
relative viability ([9]; first compound 15.81 µM): 0.654
relative viability ([9]; first compound 50 µM): 0.764
relative viability ([9]; first compound 158.11 µM): 0.675
relative viability ([9]; first compound 500 µM): 0.597
relative viability ([10]; first compound 5 µM): 0.251
relative viability ([10]; first compound 15.81 µM): 0.213
relative viability ([10]; first compound 50 µM): 0.261
relative viability ([10]; first compound 158.11 µM): 0.0572
relative viability ([10]; first compound 500 µM): 0.051
relative viability ([11]; first compound 5 µM): 0.429
relative viability ([11]; first compound 15.81 µM): 0.406
relative viability ([11]; first compound 50 µM): 0.395
relative viability ([11]; first compound 158.11 µM): 0.277
relative viability ([11]; first compound 500 µM): 0.168
relative viability ([12]; first compound 5 µM): 0.693
relative viability ([12]; first compound 15.81 µM): 0.527
relative viability ([12]; first compound 50 µM): 0.533
relative viability ([12]; first compound 158.11 µM): 0.314
relative viability ([12]; first compound 500 µM): 0.0957
relative viability ([13]; first compound 5 µM): 0.468
relative viability ([13]; first compound 15.81 µM): 0.51
relative viability ([13]; first compound 50 µM): 0.539
relative viability ([13]; first compound 158.11 µM): 0.25
relative viability ([13]; first compound 500 µM): 0.108
relative viability ([14]; first compound 5 µM): 0.314
relative viability ([14]; first compound 15.81 µM): 0.295
relative viability ([14]; first compound 50 µM): 0.299
relative viability ([14]; first compound 158.11 µM): 0.321
relative viability ([14]; first compound 500 µM): 0.288
relative viability ([15]; first compound 5 µM): 0.886
relative viability ([15]; first compound 15.81 µM): 0.79
relative viability ([15]; first compound 50 µM): 0.815
relative viability ([15]; first compound 158.11 µM): 0.79
relative viability ([15]; first compound 500 µM): 0.219
relative viability ([16]; first compound 5 µM): 0.369
relative viability ([16]; first compound 15.81 µM): 0.375
relative viability ([16]; first compound 50 µM): 0.365
relative viability ([16]; first compound 158.11 µM): 0.272
relative viability ([16]; first compound 500 µM): 0.0864
relative viability ([17]; first compound 5 µM): 0.536
relative viability ([17]; first compound 15.81 µM): 0.578
relative viability ([17]; first compound 50 µM): 0.599
relative viability ([17]; first compound 158.11 µM): 0.188
relative viability ([17]; first compound 500 µM): 0.132
relative viability ([18]; first compound 5 µM): 0.799
relative viability ([18]; first compound 50 µM): 0.879
relative viability ([18]; first compound 158.11 µM): 0.716
relative viability ([18]; first compound 500 µM): 0.622
relative viability ([19]; first compound 5 µM): 0.494
relative viability ([19]; first compound 15.81 µM): 0.467
relative viability ([19]; first compound 50 µM): 0.575
relative viability ([19]; first compound 158.11 µM): 0.289
relative viability ([19]; first compound 500 µM): 0.111
relative viability ([20]; first compound 5 µM): 0.34
relative viability ([20]; first compound 15.81 µM): 0.321
relative viability ([20]; first compound 50 µM): 0.326
relative viability ([20]; first compound 158.11 µM): 0.155
relative viability ([20]; first compound 500 µM): 0.0289
relative viability ([21]; first compound 5 µM): 0.794
relative viability ([21]; first compound 15.81 µM): 0.783
relative viability ([21]; first compound 50 µM): 0.819
relative viability ([21]; first compound 158.11 µM): 0.765
relative viability ([21]; first compound 500 µM): 0.683
relative viability ([22]; first compound 5 µM): 0.261
relative viability ([22]; first compound 15.81 µM): 0.253
relative viability ([22]; first compound 50 µM): 0.231
relative viability ([22]; first compound 158.11 µM): 0.148
relative viability ([22]; first compound 500 µM): 0.0077
relative viability ([23]; first compound 5 µM): 0.65
relative viability ([23]; first compound 15.81 µM): 0.656
relative viability ([23]; first compound 50 µM): 0.664
relative viability ([23]; first compound 158.11 µM): 0.767
relative viability ([23]; first compound 500 µM): 0.703
